Target: T1, HDAC6 (Homo sapiens, UniProt Q9UBN7)
T1 sequence (Q9UBN7 1-1215): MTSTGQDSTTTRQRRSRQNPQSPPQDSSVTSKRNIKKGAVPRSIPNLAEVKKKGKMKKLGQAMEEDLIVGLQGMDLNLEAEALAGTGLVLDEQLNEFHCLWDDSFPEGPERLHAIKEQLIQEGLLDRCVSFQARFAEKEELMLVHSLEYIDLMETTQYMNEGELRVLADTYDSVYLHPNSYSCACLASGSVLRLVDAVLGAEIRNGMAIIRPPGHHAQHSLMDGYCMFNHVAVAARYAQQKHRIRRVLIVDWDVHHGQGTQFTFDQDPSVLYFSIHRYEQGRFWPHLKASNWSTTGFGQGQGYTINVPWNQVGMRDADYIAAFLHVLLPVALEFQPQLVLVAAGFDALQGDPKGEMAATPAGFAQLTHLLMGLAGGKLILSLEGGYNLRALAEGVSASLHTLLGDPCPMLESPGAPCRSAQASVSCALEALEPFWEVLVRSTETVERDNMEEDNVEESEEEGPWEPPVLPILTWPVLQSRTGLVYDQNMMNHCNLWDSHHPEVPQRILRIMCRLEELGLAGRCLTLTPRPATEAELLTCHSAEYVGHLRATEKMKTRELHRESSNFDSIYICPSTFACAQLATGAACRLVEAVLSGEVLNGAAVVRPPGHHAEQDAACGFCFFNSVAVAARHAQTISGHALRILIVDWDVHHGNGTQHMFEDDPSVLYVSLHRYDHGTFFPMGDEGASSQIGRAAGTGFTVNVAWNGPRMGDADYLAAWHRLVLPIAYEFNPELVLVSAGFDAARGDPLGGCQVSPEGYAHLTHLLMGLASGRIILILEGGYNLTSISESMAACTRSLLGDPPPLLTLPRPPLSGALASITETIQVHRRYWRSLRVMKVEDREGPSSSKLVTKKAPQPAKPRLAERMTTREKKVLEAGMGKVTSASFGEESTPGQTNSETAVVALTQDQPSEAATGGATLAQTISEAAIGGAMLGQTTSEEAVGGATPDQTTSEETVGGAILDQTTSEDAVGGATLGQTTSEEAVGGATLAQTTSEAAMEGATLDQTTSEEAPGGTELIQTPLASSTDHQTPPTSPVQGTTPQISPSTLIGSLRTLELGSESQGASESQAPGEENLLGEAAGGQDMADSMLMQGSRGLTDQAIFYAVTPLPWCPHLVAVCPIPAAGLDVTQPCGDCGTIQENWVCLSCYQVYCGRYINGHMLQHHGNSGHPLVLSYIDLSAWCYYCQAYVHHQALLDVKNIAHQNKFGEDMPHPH
Experiment: In vitro cell-based assay: acetylation levels of Alpha-Tubulin by Western Blot in MOLP8 cells
Design: endogenous in cells; host or cells: MOLP8
Settings: 18 h, acetyl-alpha-tubulin relative band intensity, ACY-1215 1 μM = 100%
Experimental: In Vitro Cell-Based Assay
In order to determine the cellular activity of HDAC6 upon treatment with HDAC6 inhibitors, acetylation levels of Alpha-Tubulin (a HDAC6-specific substrate) were measured by Western Blot. For this, MOLP8 cells were seeded in 6-well plates at a cell density of 500.000 cells/well and treated with the selected compounds at 5 and 1 μM for 18 h at 37° C. and 5% CO2 in a humidified tissue culture incubator. Consecutively, cell pellets were collected and whole protein extracts prepared using RIPA buffer (SIGMA) supplemented with 1× protease inhibitors (cOmplete mini, Roche). Protein concentration was determined with Bradford's reagent (Bio-Rad) as per manufacturer's instructions, and 7 μg of total protein were loaded into pre-cast 10% NuPAGE Novex gels (Life Technologies). Gels were run in […] (Life Technologies) and proteins were transferred using the iBlot 2 Dry Blotting System (Life Technologies). Blots were subsequently rinsed in distilled water and stained with Ponceau S solution (SIGMA). Blots were then washed in distilled water to remove Ponceau excess and scanned with the Epson Perfection V600 Photo professional Scanner. After this, blots were de-stained and blocked in 5% milk/PBS-Tween 0.1% for 1 h at room temperature followed by incubation with anti-Acetyl-alpha Tubulin (SIGMA cat. #T7451, 1:10.000 dilution) and anti-Beta-actin (SIGMA, cat. #A5316, 1:2.000 dilution) primary antibodies in 5% milk/PBS-T 0.1%, overnight at 4° C. on a shaking platform. After incubation, blots were washed 3 times for 5 minutes each in PBS-Tween 0.5% and incubated with anti-mouse HRP-conjugated secondary antibody (Jackson Immuno Research, cat. #115-035-068) at 1:8.000 in 5% milk/PBS-Tween 0.1%, 1 h at room temperature on a shaking platform. After 3 washes of 5 minutes each with PBS-Tween 0.5% and 1 wash in PBS 1×, blots were developed with ECL Plus (GE Healthcare) and the chemiluminescent reaction imaged with the G:Box Chemi XRQ (Syngene) imaging system. WB and Ponceau images were analysed with ImageJ software, WB band intensities normalized by either total protein or Beta-actin content and made relative to ACY-1215 1 μM (equivalent to 100%). ACY-1215 is a HDAC6 inhibitor, and is also known as ricolinostat, with chemical name 2-(diphenylamino)-N-[7-(hydroxyamino)-7-oxoheptyl]-5-pyrimidinecarboxamide. Percentage of band intensities was classified as follows: […]

SMILES | Cellular activity @1 uM | Cellular activity @5 uM
CCCn1ccc2cc(-c3cc(-c4noc(C(F)(F)F)n4)ccn3)ncc21 [Example 1a, 3-(2-(1-Propyl-1H-pyrrolo[2,3-c]pyridin-5-yl)pyridin-4-yl)-5-(trifluoromethyl)-1,2,4-oxadiazole] | − (<50) | ++ (150-300)
COCCn1nc(-c2cc(-c3noc(C(F)(F)F)n3)ccn2)c2ncccc21 [Example 1aaa, 3-(2-(1-(2-Methoxyethyl)-1H-pyrazolo[4,3-b]pyridin-3-yl)pyridin-4-yl)-5-(trifluoromethyl)-1,2,4-oxadiazole] | + (50-150) | + (50-150)
CCn1nc(-c2cc(-c3noc(C(F)(F)F)n3)ccn2)c2ncccc21 [Example 1aab, 3-(2-(1-Ethyl-1H-pyrazolo[4,3-b]pyridin-3-yl)pyridin-4-yl)-5-(trifiuoromethyl)-1,2,4-oxadiazole] | + (50-150) | + (50-150)
Cn1ccnc1CCn1nc(-c2cc(-c3noc(C(F)(F)F)n3)ccn2)c2ncccc21 [Example 1aac] | + (50-150) | ++ (150-300)
Cn1cc(Cn2ccc3cnc(-c4cc(-c5noc(C(F)(F)F)n5)ccn4)cc32)cn1 [Example 1aad, 3-(2-(1-((1-Methyl-1H-pyrazol-4-yl)methyl)-1H-pyrrolo[3,2-c]pyridin-6-yl)pyridin-4-yl)-5-(trifluoromethyl)-1,2,4-oxadiazole] | + (50-150) | ++ (150-300)
O=C(CCc1ccccc1)Nc1ccnc(-c2cc(-c3noc(C(F)(F)F)n3)ccn2)c1 [Example 1ad, 3-Phenyl-N-(4′-(5-(trifluoromethyl)-1,2,4-oxadiazol-3-yl)-[2,2′-bipyridin]-4-yl)propanamide] | + (50-150) | + (50-150)
O=C(NC1CCCNC1)c1ccnc(-c2cc(-c3noc(C(F)(F)F)n3)ccn2)c1 (centres unmarked) [Example 1af, N-(Piperidin-3-yl)-4′-(5-(trifluoromethyl)-1,2,4-oxadiazol-3-yl)-[2,2′-bipyridine]-4-carboxamide] | + (50-150) | + (50-150)
FC(F)(F)c1nc(-c2ccnc(-c3ccc(OCCCn4cccn4)cn3)c2)no1 [Example 1ag, 3-(5′-(3-(1H-Pyrazol-1-yl)propoxy)-[2,2′-bipyridin]-4-yl)-5-(trifluoromethyl)-1,2,4-oxadiazole] | − (<50) | + (50-150)

The remaining lines, values ahead:

Cellular activity @1 uM | Cellular activity @5 uM | SMILES
− (<50) | + (50-150) | CCCn1cc(COC)c2cc(-c3cc(-c4noc(C(F)(F)F)n4)ccn3)ncc21 [Example 1ai, 3-(2-(3-(Methoxymethyl)-1-propyl-1H-pyrrolo[2,3-c]pyridin-5-yl)pyridin-4-yl)-5-(trifluoromethyl)-1,2,4-oxadiazole]
+ (50-150) | + (50-150) | CCCCn1cc(CO)c2cc(-c3cc(-c4noc(C(F)(F)F)n4)ccn3)ncc21 [Example 1aj, (1-butyl-5-(4-(5-(trifluoromethyl)-1,2,4-oxadiazol-3-yl)pyridin-2-yl)-1H-pyrrolo[2,3-c]pyridin-3-yl)methanol]
+ (50-150) | + (50-150) | CN1CCC(CNC(=O)c2ccnc(-c3cc(-c4noc(C(F)(F)F)n4)ccn3)c2)CC1 [Example 1am, N-((1-Methylpiperidin-4-yl)methyl)-4′-(5-(trifluoromethyl)-1,2,4-oxadiazol-3-yl)-[2,2′-bipyridine]-4-carboxamide]
+ (50-150) | + (50-150) | CN1CCC(CNC(=O)c2ccc(-c3cc(-c4noc(C(F)(F)F)n4)ccn3)nc2)CC1 [Example 1an, N-((1-Methylpiperidin-4-yl)methyl)-4′-(5-(trifluoromethyl)-1,2,4-oxadiazol-3-yl)-[2,2′-bipyridine]-5-carboxamide]
+ (50-150) | ++ (150-300) | FC(F)(F)CN1CCC(n2ccc3cnc(-c4cc(-c5noc(C(F)(F)F)n5)ccn4)cc32)CC1 [Example 1ao, 3-(2-(1-(1-(2,2,2-Trifluoroethyl)piperidin-4-yl)-1H-pyrrolo[3,2-c]pyridin-6-yl)pyridin-4-yl)-5-(trifluoromethyl)-1,2,4-oxadiazole]
+ (50-150) | + (50-150) | COCCn1c(C(=O)N(C)C)cc2cc(-c3cc(-c4noc(C(F)(F)F)n4)ccn3)ncc21 [Example 1ar, 1-(2-Methoxyethyl)-N,N-dimethyl-5-(4-(5-(trifluoromethyl)-1,2,4-oxadiazol-3-yi)pyridin-2-yl)-1H-pyrrolo[2,3-c]pyridine-2-carboxamide]
+ (50-150) | + (50-150) | COCCn1cc(-c2cn[nH]c2)c2cc(-c3cc(-c4noc(C(F)(F)F)n4)ccn3)ncc21 [Example 1as, 3-(2-(1-(2-Methoxyethyl)-3-(1H-pyrazol-4-yl)-1H-pyrrolo[2,3-c]pyridin-5-yl)pyridin-4-yl)-5-(trifluoromethyl)-1,2,4-oxadiazole]
− (<50) | + (50-150) | Cn1ccc2cc(-c3cc(-c4noc(C(F)(F)F)n4)ccn3)ncc21 [Example 1at, 3-(2-(1-Methyl-1H-pyrrolo[2,3-c]pyridin-5-yl)pyridin-4-yl)-5-(trifluoromethyl)-1,2,4-oxadiazole]
+ (50-150) | ++ (150-300) | FC(F)(F)c1nc(-c2ccnc(-c3cc4c(ccn4Cc4cccnc4)cn3)c2)no1 [Example 1av, 3-(2-(1-(Pyridin-3-ylmethyl)-1H-pyrrolo[3,2-c]pyridin-6-yl)pyridin-4-yl)-5-(trifluoromethyl)-1,2,4-oxadiazole]
+ (50-150) | + (50-150) | CN(CCO)CCCOc1ccc(-c2cc(-c3noc(C(F)(F)F)n3)ccn2)nc1 [Example 1ax, 2-(Methyl(3-((4′-(5-(trifluoromethyl)-1,2,4-oxadiazol-3-yl)-[2,2′-bipyridin]-5-yl)oxy)propyl)amino)ethan-1-ol]
− (<50) | + (50-150) | COCCn1ncc2cc(-c3cc(-c4noc(C(F)(F)F)n4)ccn3)ncc21 [Example 1ay, 3-(2-(1-(2-Methoxyethyl)-1H-pyrazolo[3,4-c]pyridin-5-yl)pyridin-4-yl)-5-(trifluoromethyl)-1,2,4-oxadiazole]
